Earlier results as cited in US20200268684A1, “COMPOSITION FOR TREATING AND PREVENTING NEUROLOGICAL DISEASES, NEUROINFLAMATION AND ALZHEIMER'S DISEASE” (HSRX GROUP, LLC, priority 2015, published 2020).

Test system: Aβ1-40 and Aβ1-42 peptides in SweAPP N2a cells
Settings: 3-30 μg/mL, 12 hours

Structure (SMILES): COc1cc(/C=C/C(=O)CC(=O)/C=C/c2ccc(O)c(OC)c2)ccc1O [curcumin]
- reduction of Aβ1-40 and Aβ1-42 peptides secreted: significant inhibition
